Marks after values point to notes of the source that are not given here.
Columns and labels:
Format in all cases: in vivo
[1] = system: Botrytis cinerea (the causal agent of tomato Botrytis); experiment: Test C: tomato Botrytis, preventive spray on tomato seedlings, visual disease rating; details: tomato Botrytis, preventive spray on tomato seedlings
Summary of the method: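 Preventive test: B. cinerea spore inoculation one day after tomato seedlings were sprayed to run-off with compound suspended in 50/50 acetone–water plus 250 ppm surfactant. Plants held 48 h at 20° C in saturated air, then 3 days at 24° C; visual ratings scored 100 (full control) to 0 versus controls; some entries used 40 ppm.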

[2] = system: Septoria tritici (the causal agent of wheat leaf blotch); experiment: Test B: wheat leaf blotch, preventive spray on wheat seedlings, visual disease rating; details: wheat leaf blotch, preventive spray on wheat seedlings
Summary of the method: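 Preventive test: Septoria tritici spores applied one day after run-off spraying of seedlings (200 ppm equals 800 g/ha; some tests 40 ppm). After 48 h at 24 °C saturated atmosphere and 19 days at 20 °C, disease scored visually as % control relative to untreated plants.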

[3] = system: Blumeria graminis f. sp. tritici (also known as Erysiphe graminis f. sp. tritici, the causal agent of wheat powdery mildew); experiment: Test D: wheat powdery mildew, preventive spray on wheat seedlings, visual disease rating; details: wheat powdery mildew, preventive spray on wheat seedlings
Summary of the method: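 Preventive test: seedlings sprayed to run-off and inoculated with powdery mildew spores one day later. Suspensions were made in 50/50 acetone/water with 250 ppm Trem 014 surfactant (200 ppm equals 800 g/ha). Visual ratings after 8 days at 20 °C give percent disease control versus controls.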

[4] = system: Puccinia recondite f. sp. tritici (the causal agent of wheat leaf rust); experiment: Test A: wheat leaf rust, preventive spray on wheat seedlings, visual disease rating; details: wheat leaf rust, preventive spray on wheat seedlings
Summary of the method: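 This was a preventive test: Puccinia recondite f. sp. tritici inoculum was applied one day after compound spray to run-off. Test suspensions were made in 50/50 acetone/water with 250 ppm surfactant, at 200 ppm (800 g/ha equivalent) or 40 ppm. Visual ratings of % disease control relative to controls were made after 24 h of saturated humidity and 7 growth-chamber days, all at 20° C.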

[5] = asterisk: 40 ppm test suspension
[6] = no asterisk (standard test suspension concentration, not 40 ppm)

Compound	Test C rating (100 = 100% disease control, 0 = no disease control relative to the controls) [1, 5]	Test B rating (100 = 100% disease control, 0 = no disease control relative to the controls) [2, 5]	Test D rating (100 = 100% disease control, 0 = no disease control relative to the controls) [3, 5]	Test A rating (100 = 100% disease control, 0 = no disease control relative to the controls) [4, 5]	Test C rating (100 = 100% disease control, 0 = no disease control relative to the controls) [1, 6] [%]	Test B rating (100 = 100% disease control, 0 = no disease control relative to the controls) [2, 6] [%]	Test D rating (100 = 100% disease control, 0 = no disease control relative to the controls) [3, 6] [%]	Test A rating (100 = 100% disease control, 0 = no disease control relative to the controls) [4, 6] [%]
Cc1ccc(C(O)c2c(Br)nc(C)n2-c2c(F)cccc2F)c(C)c1 (stereo not shown) [compound 145]	51* %	100* %	98* %	100* %				
COc1cc(F)c(C(O)c2c(Br)nc(C)n2-c2c(F)cccc2F)c(F)c1 (stereo not shown) [compound 147]	99* %	100* %	0* %	100* %				
OC(c1ccc(F)cc1Cl)c1c(Br)nc(C2CC2)n1-c1c(F)cccc1Br (stereo not shown) [compound 150]					0	100	27	85
OC(c1ccc(F)cc1Cl)c1c(Cl)nc(C2CC2)n1-c1c(F)cccc1Br (stereo not shown) [compound 151]					0	100	64	74
OC(c1ccc(F)cc1F)c1cnc(C2CC2)n1-c1c(F)cccc1Br (stereo not shown) [compound 152]					0	0	0	74
COc1cc(F)c(C(O)c2c(Cl)nc(C)n2-c2ccc(F)cc2Cl)c(F)c1 (stereo not shown) [compound 153]	99* %					100	94	100
OC(c1ccc(F)cc1F)c1c(Cl)nc(Cl)n1-c1c(F)cc(Cl)cc1F (stereo not shown) [compound 154]	100* %	100* %	89* %	100* %				
Cc1nc(Cl)c(C(O)c2c(F)cc(F)cc2F)n1-c1ccc(F)cc1Br (stereo not shown) [compound 155]					99	100	0	100
Cc1nc(Cl)c(C(O)c2c(F)cc(Cl)cc2F)n1-c1ccc(F)cc1Cl (stereo not shown) [compound 156]					16	92	0	98
Cc1cc(Cl)ccc1C(O)c1c(Cl)nc(C)n1-c1c(F)cccc1F (stereo not shown) [compound 159]	99* %	100* %	97* %	99* %				
Cc1cc(Cl)ccc1C(O)c1c(Br)nc(C)n1-c1c(F)cccc1F (stereo not shown) [compound 161]	94* %	100* %	84* %	92* %				
Cc1nc(Cl)n(-c2ccc(F)cc2F)c1C(O)c1ccc(F)cc1F (stereo not shown) [compound 162]					100	100	98	100
Cc1nc(Cl)n(-c2ccc(F)cc2F)c1C(O)c1ccc(Cl)cc1 (stereo not shown) [compound 163]					100	100	13	98
